Measured values: patent publication US20230312564A1, “AROMATIC RING-LACTAM COMPOUND, PREPARATION METHOD THEREFOR AND USE THEREOF” (SHANGHAI RINGENE BIOPHARMA CO., LTD., priority 2020, published 2023)

Tests used:
[1] = tested on: T1, ERK1/2 kinase; test: ERK1/2 kinase (Carna) inhibitory activity, Caliper mobility shift; type: biochemical
T1 construct: fused on or other part: Carna's ERK products carry a GST tag by vendor knowledge
Outline: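 Compounds tested from 10 μM top concentration, 3-fold dilutions to 10 points, in duplicate, in 1× kinase buffer; Caliper mobility-shift readout.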

[2] = Liver microsomal metabolic stability, rat; type: in vitro ADME; settings: liver microsomes, 0.5 mg/mL microsomes, 1 μM compound, NADPH, read-out: Liver microsomal stability T1/2
Procedure: (§1) The reaction was stopped with tinidazole-containing acetonitrile at 0 min, 5 min, 10 min and 30 min, respectively. After vortexing for 10 min and centrifuging at 15,000 rmp for 10 min, 50 μL of the supernatant was injected into a 96-well plate. The metabolic stability of the compound was calculated by determining the relative reduction of the drug, calculated as half-life T1/2.

[3] = tested on: Colo-205 cells; test: Colo-205 tumor cell proliferation, CCK-8, 72 hours; type: cell-based
[4] = target: CYP2C8 (Homo sapiens, UniProt P11712); test: Direct inhibition test (DI test) in human liver microsomes, CYP2C8; type: in vitro ADME
[5] = Liver microsomal stability, comparisons in words across species; type: in vitro ADME; settings: different species; versus the comparative compounds
Procedure: as §1

[6] = target: T2, CYP2D6 (Homo sapiens, UniProt P10635); test: Direct inhibition test (DI test) in human liver microsomes, CYP2D6; type: in vitro ADME
T2 construct: A system containing 100 μL of human liver microsomes; from tissue; host or cells: human liver microsomes
Procedure: (§2) (2) Direct inhibition test (DI test): A system containing 100 μL of human liver microsomes (final concentration of 0.2 mg/mL) was subjected to a direct inhibition incubation, and the system contained NADPH (final concentration of 1 mM), 10 μM compound, positive inhibitor cocktail (10 μM ketoconazole, 10 μM quinidine, 100 μM sulfaphenazole, 10 μM α-naphthoflavone, 1,000 μM tranylcypromine), negative control (BPS of 0.1% DMSO), and mixed probe substrates (10 μM midazolam, 100 μM testosterone, 10 μM dextromethorphan, […], 100 μM phenacetin, 100 μM mephenytoin). After 20 minutes of incubation, the reaction was stopped. The relative activity of the enzyme was calculated by measuring the relative production of metabolites.

[7] = target: T3, CYP3A4 (Homo sapiens, UniProt P08684); test: Direct inhibition test (DI test) in human liver microsomes, CYP3A4; type: in vitro ADME
T3 construct: A system containing 100 μL of human liver microsomes; from tissue; host or cells: human liver microsomes
Procedure: as §2

[8] = Liver microsomal metabolic stability, mouse; type: in vitro ADME; settings: liver microsomes, 0.5 mg/mL microsomes, 1 μM compound, NADPH, read-out: Liver microsomal stability T1/2
Procedure: as §1

[9] = Liver microsomal metabolic stability, dog; type: in vitro ADME; settings: liver microsomes, 0.5 mg/mL microsomes, 1 μM compound, NADPH, read-out: Liver microsomal stability T1/2
Procedure: as §1

[10] = In-vivo pharmacokinetic parameters in SD rats
Procedure: Six male SPF grade SD rats or Balb-c mice (Shanghai Sipple-Bikai Laboratory Animal) were divided into two groups, and the tested compounds were prepared into appropriate solutions or suspensions; one group was administered intravenously (with a dose of 1 mg/kg), and the other group was administered orally (with a dose of 5 mg/kg). Blood samples were collected by jugular vein puncture, and each sample was collected with a volume of about 0.2 mL/time point, and heparin sodium was used for anticoagulation. The time points of blood collection were listed below: 5, 15 and 30 min […], 1, 2, 4, 6, 8 and 24 h after administration; the collected blood samples were placed on ice and centrifuged to separate plasma (centrifugation conditions: 8,000 rpm, 6 min, 2 to 8° C.), and the collected plasma was stored at −80° C. before analysis. Plasma samples were analyzed by LC-MS/MS.
The pharmacokinetic parameters such as AUC0-t, AUC0-∞, MRT0-∞, Cmax, Tmax, T1/2 and Vd of the tested compounds and their mean values and standard deviations were calculated by the pharmacokinetic calculation software WinNonlin5.2 non-compartmental model according to the plasma concentration data. In addition, the bioavailability (F) was calculated by the following formula.
For samples with concentrations below the lower limit of quantitation, while pharmacokinetic parameter calculations were performed, samples sampled before Cmax was reached should be calculated as a zero value and samples sampled after Cmax was reached should be calculated as below limit of quantitation (BLQ).

[11] = Liver microsomal metabolic stability, human; type: in vitro ADME; settings: liver microsomes, 0.5 mg/mL microsomes, 1 μM compound, NADPH, read-out: Liver microsomal stability T1/2
Procedure: as §1

[12] = target: T4, CYP2C19 (Homo sapiens, UniProt P33261); test: Direct inhibition test (DI test) in human liver microsomes, CYP2C19; type: in vitro ADME
T4 construct: A system containing 100 μL of human liver microsomes; from tissue; host or cells: human liver microsomes
Procedure: as §2

[13] = male, rat, plasma, 1 mg/kg, IV, 1 mpk
[14] = male, rat, plasma, 5 mg/kg, PO, 5 mpk

T3 sequence (P08684 whole entry): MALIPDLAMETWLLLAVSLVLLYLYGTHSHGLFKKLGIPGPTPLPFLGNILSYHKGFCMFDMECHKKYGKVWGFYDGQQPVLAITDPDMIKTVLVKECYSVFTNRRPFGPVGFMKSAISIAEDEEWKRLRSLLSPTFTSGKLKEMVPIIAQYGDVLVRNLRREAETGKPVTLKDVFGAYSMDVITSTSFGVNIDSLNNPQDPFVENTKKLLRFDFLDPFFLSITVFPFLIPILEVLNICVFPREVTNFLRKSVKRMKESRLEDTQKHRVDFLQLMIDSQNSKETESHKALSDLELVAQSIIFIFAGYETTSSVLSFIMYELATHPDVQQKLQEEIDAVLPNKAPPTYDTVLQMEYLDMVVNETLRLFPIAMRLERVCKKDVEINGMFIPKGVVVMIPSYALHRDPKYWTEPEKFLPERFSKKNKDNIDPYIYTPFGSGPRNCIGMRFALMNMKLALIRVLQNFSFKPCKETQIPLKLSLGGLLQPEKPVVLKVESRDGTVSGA
CYP2C8, sequence (P11712 whole entry): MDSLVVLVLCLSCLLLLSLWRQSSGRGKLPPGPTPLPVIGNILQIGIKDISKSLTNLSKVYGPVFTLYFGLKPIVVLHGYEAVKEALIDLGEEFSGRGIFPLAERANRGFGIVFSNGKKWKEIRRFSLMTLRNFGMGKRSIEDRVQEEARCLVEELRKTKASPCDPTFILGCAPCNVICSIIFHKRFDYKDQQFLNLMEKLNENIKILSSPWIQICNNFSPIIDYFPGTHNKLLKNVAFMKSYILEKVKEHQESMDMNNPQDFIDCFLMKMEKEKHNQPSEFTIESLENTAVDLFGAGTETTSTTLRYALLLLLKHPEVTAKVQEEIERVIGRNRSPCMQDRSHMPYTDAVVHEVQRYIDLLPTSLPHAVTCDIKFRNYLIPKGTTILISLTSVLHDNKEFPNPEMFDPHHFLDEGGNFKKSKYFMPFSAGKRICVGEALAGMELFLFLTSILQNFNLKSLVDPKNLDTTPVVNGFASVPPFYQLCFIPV
T2 sequence (P10635 whole entry): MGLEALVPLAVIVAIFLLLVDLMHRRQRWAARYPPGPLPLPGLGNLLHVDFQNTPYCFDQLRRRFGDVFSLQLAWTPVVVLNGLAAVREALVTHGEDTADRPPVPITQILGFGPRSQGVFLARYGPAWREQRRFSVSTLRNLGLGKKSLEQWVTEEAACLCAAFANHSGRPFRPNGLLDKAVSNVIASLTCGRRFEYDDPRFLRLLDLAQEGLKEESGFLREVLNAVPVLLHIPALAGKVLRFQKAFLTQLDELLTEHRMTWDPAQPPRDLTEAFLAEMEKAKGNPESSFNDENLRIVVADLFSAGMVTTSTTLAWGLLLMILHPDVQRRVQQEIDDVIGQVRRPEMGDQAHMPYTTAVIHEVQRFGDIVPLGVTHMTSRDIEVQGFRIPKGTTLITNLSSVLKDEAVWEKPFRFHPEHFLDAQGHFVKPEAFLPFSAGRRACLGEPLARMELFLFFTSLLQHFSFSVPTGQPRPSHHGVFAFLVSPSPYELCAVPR
T4 sequence (P33261 whole entry): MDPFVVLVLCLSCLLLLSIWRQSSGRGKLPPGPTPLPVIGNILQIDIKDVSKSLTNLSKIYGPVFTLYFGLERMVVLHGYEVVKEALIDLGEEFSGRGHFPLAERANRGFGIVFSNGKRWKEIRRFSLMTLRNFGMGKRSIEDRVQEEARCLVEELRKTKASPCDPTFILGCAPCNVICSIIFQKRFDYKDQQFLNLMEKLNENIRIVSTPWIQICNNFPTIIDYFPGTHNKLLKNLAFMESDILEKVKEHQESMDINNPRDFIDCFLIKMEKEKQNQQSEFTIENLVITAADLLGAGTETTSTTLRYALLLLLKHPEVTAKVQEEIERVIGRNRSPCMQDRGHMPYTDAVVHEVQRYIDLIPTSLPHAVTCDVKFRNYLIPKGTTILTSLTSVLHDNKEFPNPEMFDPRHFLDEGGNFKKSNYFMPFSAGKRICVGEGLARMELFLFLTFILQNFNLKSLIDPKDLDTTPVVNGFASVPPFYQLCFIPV

- IC50 ([1]; numeric values, read-out: ERK½ IC50): < 0.001 µM
- half-life at 1 μM [2]: 14 min
- IC50 ([3]; Homo sapiens, COLO 205, 72 hours, CCK-8, numeric values, read-out: Colo-205 IC50): 0.0038 µM
- IC50 at 20 min [4]: > 10 µM
- stability of different kinds of liver microsomes (in words) [5]: significant advantages
- IC50 [6]: > 10 µM
- IC50 [7]: > 10 µM
- half-life at 1 μM [8]: 13 min
- half-life at 1 μM [9]: 73 min
- F ([10]; PO 5 mpk vs IV 1 mpk): 29%
- AUC(0-inf) [10, 13]: 0.304 µM·h
- AUC(0-t) [10, 13]: 0.303 µM·h
- MRT inf [10, 13]: 12 min
- clearance [10, 13]: 94 mL/min/kg
- half-life [10, 13]: 18 min
- Vd ([10]; male, rat, plasma, 1 mg/kg, IV, 1 mpk, read-out: Vss): 0.9 L/kg
- AUC(0-inf) [10, 14]: 0.436 µM·h
- AUC(0-t) [10, 14]: 0.432 µM·h
- Cmax [10, 14]: 476 nM
- Tmax [10, 14]: 18 min
- half-life [10, 14]: 66 min
- half-life at 1 μM [11]: 14 min
- IC50 [12]: > 10 µM
SMILES: COc1cc(F)cc([C@@H](CO)NC(=O)[C@@H](C)N2Cc3ccc(-c4nc(NC5CCOCC5)ncc4F)c(F)c3C2=O)c1 [Embodiment 40]
- enzyme inhibitory activity (in words) [1]: extremely strong enzyme inhibitory activity
- cell proliferation inhibitory activity (in words) ([3]; Colo-205): strong cell proliferation inhibitory activity
